In data set [1] the target is PfAtg8-PfAtg3 interaction (Plasmodium falciparum, UniProt Q8IJK2). In kind it is binding, P. falciparum.
Data set [2] has as its system P. falciparum 3D7 blood stages. Particulars: asterisk / PubChem reported values; read-out: IC50 Blood stage, derived from the literature; cited from earlier work.
The test system of data set [3] is P. falciparum 3D7. As to the kind of experiment: SYBR Green I growth inhibition assay, blood stage. In kind it is cell-based. Particulars: Plasmodium falciparum. As for the experimental part:
P. falciparum blood stage culturing. P. falciparum 3D7 and FCR3 cultures were maintained using modified, previously published methods at 37° C., 2% hematocrit of human red blood cells (Science 1976, 193, 673-675). Complete culture media consisted of sterile RPMI 1640 media (Life Technologies), supplemented with 10% human serum, 0.005% hypoxanthine, and buffered with final concentrations of 0.6% HEPES and 0.26% NaHCO3. The FCR3 strain was maintained at 3% CO2 and 5% O2, 92% N2 atmosphere, while the 3D7 strain was maintained at 5% CO2, 5% O2, 90% N2 atmosphere.
SYBR Green I growth inhibition assay. 10 μL of 10× compound diluted in RPMI 1640 media (Gibco) with a constant concentration of 1% DMSO was added to a 96 well plate (Costar), 90 μL of 1.5% ring stage, synchronized with 5% w/v sorbitol P. falciparum 3D7 parasites, 1% hematocrit, in culture media with 10% v/v human serum with 10 μg/mL gentamycin. Each compound concentration and 1% v/v DMSO controls were run in triplicate. Plates were incubated at 37° C. in 5% O2, 5% CO2 and 90% N2 for 72 hours. Plates were frozen, thawed, and incubated with 100-μL 2× SYBR green in lysis buffer (20 mM Tris pH 7.5, 5 mM EDTA, 0.008% Saponin, 0.08% TritonX-100) in the dark for at least one hour. Fluorescence was measured with a plate reader (HTS 7000, Perkin Elmer) at excitation/emission wavelengths of 485/535 nm.
Plasmodium parasite growth inhibition assay. P. falciparum 3D7 parasites were cultured as previously described (J Med Chem 57:4521-4531(2014)). Briefly, the parasites were cultured in 10% v/v human serum with 10 μg/mL gentamycin and synchronized with 5% w/v sorbitol. 1.5% ring stage parasites were added to 96 well plates (Costar) containing serial dilutions, performed in triplicate, of compound in RPMI 1640 media (Gibco). Plates were incubated at 37° C. in 5% O2, 5% CO2, and 90% N2 for 72 h. Plates were frozen, thawed, and incubated with 100 μL 2× SYBR green in lysis buffer (20 mM Tris pH 7.5, 5 mM EDTA, 0.008% Saponin, 0.08% TritonX-100) in the dark for 1 h. Fluorescence was measured with a plate reader (HTS 7000, PerkinElmer) at excitation/emission wavelengths of 485/535 nm.

In data set [4] the test system is PfAtg8-PfAtg3 interaction. As to the kind of experiment: SPR protein-protein interaction assay, PfAtg8-PfAtg3 (VLS compounds). In kind it is binding, P. falciparum. The conditions noted are these: 500 μM. As for the experimental part:
Surface Plasmon Resonance (SPR) protein-protein interaction assay. All measurements were carried out on a BiaCore 3000 instrument. We used the previously described SPR competition assay to test inhibition of the PfAtg8-PfAtg3 and hLC3-hAtg3 interaction. The standard running buffer was 10 mM HEPES, 150 mM NaCl, 0.01% Tween 20, adjusted to pH 7.5. Prior to performing SPR assays, all solutions were sterile filtered and degassed for 1 h at room temperature. For small molecule inhibitor studies, the same running buffer was supplemented with 1% DMSO. All dose dependency measurements were carried out in triplicate and corrected for DMSO absorption effects using double referencing with interspersed blank injections and an untreated flow cell on the SPR chip and the SPR analysis software Scrubber 2.0 (BioLogics). For each interaction pair, a new CM5 SPR chip was used. To exclude surface decay during the experiment, positive control injections were interspersed every 12th injection. For all interaction studies, the Atg3 homologue was immobilized and the corresponding Atg8 partner was passed as an analyte over the chip in either the presence or absence of small molecule inhibitors, dissolved to 100 mM in 100% DMSO and tested at 500 μM final concentration. Prior to the immobilization of Atg3 to an SPR chip, a pH scouting from pH 6.0 to pH 4.0 in intervals of 0.5 pH units was carried out to determine the best pre-concentration conditions for immobilization. Briefly, flow cells of an SPR chip were activated using N-hydroxysuccinimide (NHS) and 1-ethyl-3-(3-dimethylaminopropyl)carbodiimide (EDC) for 7 min with a flow rate of 20 μl/min. For PfAtg3 immobilization, a solution of 50 μg/ml of PfAtg3 in 10 mM sodium acetate pH 5.0 was passed over one flow cell until >500 Response Units (RU) were captured. The same procedure was followed for the immobilization of hAtg3. Activated free binding sites on the chip were blocked using 1 M ethanolamine for an additional 7 min. All experiments were carried out at 25° C. with a 40 μl/min flow rate and 75 s contact time, followed by a 1 min dissociation time and a 25 μl regeneration injection of 2 M MgCl2.
The dose-response curves were used to determine the approximate concentration of analyte (PfAtg8 or hLC3) needed to obtain a particular response unit (RU), typically in the range of 100-150 RU's. A fixed amount of analyte was then passed over the chip resulting in at least 100-150 response units (RU) in the absence of small molecules.

The mark [5] stands for this setting: inhibition of PfAtg8-PfAtg3 interaction.

Read-outs that look alike come from different tables or passages of the source.

Chain of PfAtg8-PfAtg3 interaction (Plasmodium falciparum, UniProt Q8IJK2) (Q8IJK2 whole entry C32I/C119S/C122S, form open): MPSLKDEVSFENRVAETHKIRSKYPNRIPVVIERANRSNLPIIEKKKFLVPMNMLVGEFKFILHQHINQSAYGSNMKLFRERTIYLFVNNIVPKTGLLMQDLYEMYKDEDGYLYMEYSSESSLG

Consider `CSc1ccccc1C(=O)Nc1nc(-c2ccccn2)cs1` [Compound 2, 2-methylsulfanyl-N-(4-pyridin-2-yl-1,3-thiazol-2-yl)benzamide], for which the “LEAN (SPR)” value in data set [1] (-log (IC50)/number of heavy atoms) is on record as 0.22. The concentration for half-maximal inhibition (IC50) in data set [1] (read-out: IC50 SPR, inhibition of PfAtg8-PfAtg3 interaction) was 15000 nM; in data set [2] it was 200 nM. As for `O=C(Nc1nc(-c2ccccn2)cs1)c1ccccc1Br` [Compound 3, 2-bromo-N-(4-pyridin-2-yl-1,3-thiazol-2-yl)benzamide], the 50% inhibitory concentration (IC50) in data set [2] was 1580 nM.

Turning to `Cc1ccc(-c2cc3c(SCC(=O)Nc4cc(C(F)(F)F)ccc4Cl)nccn3n2)cc1` [Compound 4, N-[2-chloro-5-(trifluoromethyl)phenyl]-2-[2-(4-methylphenyl)pyrazolo[1,5-a]pyrazin-4-yl]sulfanylacetamide], the “IC50 SPR” value in data set [1] (setting [5]) is reported as “None”. On the same count and under the same terms, in the case of `CN(C)c1ccc(N2C(N)=NC(N)=NC2(C)C)cc1` [Compound 5, 1-[4-(dimethylamino)phenyl]-6,6-dimethyl-1,3,5-triazine-2,4-diamine] it was “None”; in that of `Brc1ccc(Nc2nc3ccccc3nc2Nc2ccc(Br)cc2)cc1` [Compound 6, 2-N,3-N-bis(4-bromophenyl)quinoxaline-2,3-diamine], “None”. As to `COC(OC)c1ccc(C(=O)Nc2nc(-c3ccccn3)cs2)cc1` [Compound 9, 4-(Dimethoxymethyl)-N-[4-(pyridin-2-yl)-1,3-thiazol-2-yl]benzamide], the IC50 in data set [3] (3D7, two to three experiments, read-out: average IC50) was 1480 ± 600 nM. With `O=C(NCC1Cc2cccc(-c3ccncc3)c2O1)c1csc2c1CCCC2` (stereo not shown) [Compound C11], the “precipitation at the concentration used in the assay” value in data set [4] was “either precipitated or caused protein precipitation”. Still for that read-out and setting: in the case of `O=C(NCc1ccco1)C1CCN(S(=O)(=O)c2ccc(Br)cc2)CC1` [Compound C13, 1-(4-bromobenzene-sulfonyl)-N-(furan-2-ylmethyl)piperidine-4-carboxamide] it was “either precipitated or caused protein precipitation”; in that of `CCc1c(C(=O)NCc2csc(-c3cnccn3)n2)[nH]c2ccccc12` [Compound C19, 3-ethyl-N-([2-(pyrazin-2-yl)-1,3-thiazol-4-yl]methyl)-1H-indole-2-carboxamide], “either precipitated or caused protein precipitation”; in that of `O=C(NCc1csc(-c2cnccn2)n1)c1cc2sccc2[nH]1` [Compound C30, N-([3-(pyrazin-3-yl)-1,3-thiazol-4-yl]methyl)-4H-thieno[3,2-b]pyrrole-5-carboxamide], “either precipitated or caused protein precipitation”. For the molecule `CCN(CC)CCCC(C)Nc1ccnc2cc(Cl)ccc12` (stereo not shown) [chloroquine, reference compound], the half-maximal inhibitory concentration (IC50) in data set [3] (3D7) stood at 3 ± 2 nM.

Source of the values: US20170044150A1, “IDENTIFICATION OF COMPOUNDS WHICH INHIBIT ATG8-ATG3 PROTEIN-PROTEIN INTERACTION AND THEIR USE AS ANTIPARASITICAL AGENTS” (THE JOHNS HOPKINS UNIVERSITY, priority 2014, published 2017).
